Experimental data taken from patent publication US4927819A, “Cyclo-octane neuroprotective agents” (Merck Sharp & Dohme Limited, priority 1987, dated 1990).
Where a name gives a salt, the structure may show the parent alone.

What follows are compounds tested on tonic seizures induced by N-methyl-DL-aspartic acid (NMDLA) in male Swiss-Webster mice (assay: Antagonism of NMDLA-induced tonic seizures in mice). Conditions: iv; mouse, i.v. test compound 15 min before s.c. NMDLA 500 mg/kg; observed 30 min; probit analysis.
Type: in vivo, mouse (Swiss-Webster)
Method: Compounds of the invention were examined for their ability to antagonise tonic seizures induced by N-methyl-DL-aspartic acid (NMDLA). Groups of 8 male Swiss-Webster mice (25 to 30 g) were injected intravenously with the test compound at various doses, 15 min before s.c. administration of NMDLA (500 mg/kg). […] ED50 values for the antagonism of the NMDLA induced tonic seizures were determined using probit analysis.
CC12Cc3ccccc3CC(N1)c1ccccc12 (stereo not drawn) [Example 1, 6-Methyl-5,6,11,12-tetrahydrodibenzo[a,e]cycloocten-6,11-imine Hydrochloride] was tested, and the ED50 was under 5 mg/kg.
In the case of CC12Cc3ccc(Br)cc3CC(N1)c1ccccc12 (stereo not drawn) [Example 3, 2-Bromo-6-methyl-5,6,11,12-tetrahydrodibenzo[a,e]cycloocten-6.11-imine hydrochloride], the ED50 is reported as under 5 mg/kg.
CC12Cc3ccccc3CC(O)(N1)c1ccccc12 (stereo not drawn) [Example 15, 11-Hydroxy-6-methyl-5,6,11,12-tetrahydrodibenzo[a,e]cycloocten-6,11-imine hydrochloride] gave an ED50 of under 5 mg/kg.
CC12Cc3ccccc3CC(C)(N1)c1ccccc12 [Example 16, 6,11-Dimethyl-5,6,11,12-tetrahydrodibenzo[a,e]cycloocten-6,11-imine hydrochloride] showed an ED50 of under 5 mg/kg.

The compounds below were run on responses to NMDA in rat cortical slice (assay: Rat cortical slice: antagonism of responses to NMDA). Conditions: from righthand shift in NMDA concentration-response curve, read-out: apparent equilibrium constant (Kb).
Type: cell-based
Method: The effects of compounds of the invention on responses to NMDA were assessed using the rat cortical slice as described by Wong et al., Proc. Natl. Acad. Sci. USA, 1986, 83, 7104. The apparent equilibrium constant (Kb) was calculated from the righthand shift in the NMDA concentration-response curve produced by the compound under test.
For COc1ccc2c(c1)CC1NC(C)(C2)c2ccccc21 (stereo not drawn) [Example 12, 2-Methoxy-6-methyl-5,6,11,12-tetrahydrodibenzo [a,e]cycloocten-6,11-imine hydrochloride], the Kb was under 2000 nM.
In the case of CC12Cc3ccc(O)cc3CC(N1)c1ccccc12 (stereo not drawn) [Example 13, 2-Hvdroxy-6-methyl-5,6,11,12-tetrahydrodibenzo[a,e]cycloocten-6.11-imine hydrochloride], the Kb is reported as under 2000 nM.
